In patent publication US10858335B2 (Rigel Pharmaceuticals, Inc., priority 2014, dated 2020) one finds IC50 data, which are given here for 38 molecules.

Read-outs that look alike come from different tables or passages of the source.

For the assay, the system named is GDF8 signaling (p-SMAD-3 (Ser423/425)). In words: AlphaScreen SureFire SMAD3 (p-Ser423/425) assay, GDF8-stimulated cells (GDF pSMAD). The conditions noted are these: GDF8-stimulated, p-SMAD3 AlphaScreen, read-out: GDF pSMAD (MPC11) (inhibition of GDF8 signaling). Format: cell-based. For orientation: In Alpha technology, singlet oxygen from a donor bead excites a nearby acceptor bead.

Consider `Fc1ccc(-c2ncccc2-c2ccc3ncsc3c2)cc1Cl` [compound 686, 6-(2-(3-Chloro-4-fluorophenyl)pyridin-3-yl)benzo[d]thiazole], for which, for the setting “Mus musculus, MPC-11, MPC11”, the IC50 was found to be 205 nM.
For `Fc1ccc(-c2ncccc2-c2ccc3nccn3c2)cc1Cl` [compound 687, 6-(2-(3-Chloro-4-fluorophenyl)pyridin-3-yl)imidazo[1,2-a]pyridine], where the note is “Mus musculus, MPC-11, MPC11”, the IC50 is 172 nM.
In the case of `Fc1ccc(-c2ncccc2-c2ccc3ncccc3c2)cc1Cl` [compound 688, 6-(2-(3-Chloro-4-fluorophenyl)pyridin-3-yl)quinoline], the IC50 (Mus musculus, MPC-11, MPC11) came out at 1260 nM.
As for `N#Cc1cnc2ccc(-c3cccnc3-c3ccc(F)c(Cl)c3)cn12` [compound 689, 6-(2-(3-Chloro-4-fluorophenyl)pyridin-3-yl)imidazo[1,2-a]pyridine-3-carbonitrile], the IC50 (Mus musculus, MPC-11, MPC11) was 516 nM.
Same read-out and setting: for `Fc1ccc(-c2ncccc2-c2ccc3nccnc3c2)cc1Cl` [compound 690, 6-(2-(3-Chloro-4-fluorophenyl)pyridin-3-yl)quinoxaline] the value was 414 nM; for `Fc1ccc(-c2ncccc2-c2ccc3ncccc3n2)cc1Cl` [compound 691, 2-(2-(3-Chloro-4-fluorophenyl)pyridin-3-yl)-1,5-naphthyridine], 447 nM.
The same measure, in the same setting: in the case of `Fc1ccc(-c2ncccc2-c2ccc3ncnn3c2)cc1Cl` [compound 692, 6-(2-(3-Chloro-4-fluorophenyl)pyridin-3-yl)-[1,2,4]triazolo[1,5-a]pyridine] it was 436 nM.
Turning to `Fc1cc(F)c(-c2ncccc2-c2ccc3ncsc3c2)cc1F` [compound 693, 6-(2-(2,4,5-Trifluorophenyl)pyridin-3-yl)benzo[d]thiazole], for the setting “Mus musculus, MPC-11, MPC11”, the IC50 was 507 nM.
Still for that read-out and setting: in the case of `Fc1cc(F)c(-c2ncccc2-c2ccc3nccn3c2)cc1F` [compound 694, 6-(2-(2,4,5-Trifluorophenyl)pyridin-3-yl)imidazo[1,2-a]pyridine] it was 794 nM.
The same measure, in the same setting: for `N#Cc1cnc2ccc(-c3cccnc3-c3cc(F)c(F)cc3F)cn12` [compound 695, 6-(2-(2,4,5-Trifluorophenyl)pyridin-3-yl)imidazo[1,2-a]pyridine-3-carbonitrile] the value was 1520 nM.
Same read-out and setting: for `Fc1cc(F)c(-c2ncccc2-c2ccc3ncccc3c2)cc1F` [compound 696, 6-(2-(2,4,5-Trifluorophenyl)pyridin-3-yl)quinoline] the value was 2110 nM; for `N#Cc1cnc2ccc(-c3cccnc3-c3cccc(Cl)c3)cn12` [compound 697, 6-(2-(3-Chlorophenyl)pyridin-3-yl)imidazo[1,2-a]pyridine-3-carbonitrile], 415 nM; for `Clc1cccc(-c2ncccc2-c2ccc3nccn3c2)c1` [compound 698, 6-(2-(3-Chlorophenyl)pyridin-3-yl)imidazo[1,2-a]pyridine], 145 nM.
Consider `Clc1cccc(-c2ncccc2-c2ccc3ncccc3c2)c1` [compound 699, 6-(2-(3-Chlorophenyl)pyridin-3-yl)quinolone], for which the IC50 (Mus musculus, MPC-11, MPC11) was found to be 2300 nM.
Still for that read-out and setting: in the case of `Cc1cc(-c2ncccc2-c2ccc3ncc(C(=O)NC4CCN(C(C)C)CC4)n3c2)ccc1F` [compound 700, 6-(2-(4-Fluoro-3-methylphenyl)pyridin-3-yl)-N-(1-isopropylpiperidin-4-yl)imidazo[1,2-a]pyridine-3-carboxamide] it was 138 nM.
Turning to `Cc1cc(-c2ncccc2-c2ccn3ncc(C(=O)NC4CCN(C(C)C)CC4)c3c2)ccc1F` [compound 701, 5-(2-(4-Fluoro-3-methylphenyl)pyridin-3-yl)-N-(1-isopropylpiperidin-4-yl)pyrazolo[1,5-a]pyridine-3-carboxamide], the IC50 (Mus musculus, MPC-11, MPC11) stood at 167 nM.
Take `Cc1cc(-c2ncccc2-c2ccc3ncc(C(=O)NC4CC(C)(C)N(C)C(C)(C)C4)n3c2)ccc1F` [compound 702, 6-(2-(4-Fluoro-3-methylphenyl)pyridin-3-yl)-N-(1,2,2,6,6-pentamethylpiperidin-4-yl)imidazo[1,2-a]pyridine-3-carboxamide]: the IC50 (Mus musculus, MPC-11, MPC11) was found to be 882 nM.
The same measure, in the same setting: in the case of `Cc1cc(-c2ncccc2-c2ccn3ncc(C(=O)NC4CC(C)(C)N(C)C(C)(C)C4)c3c2)ccc1F` [compound 703, 5-(2-(4-Fluoro-3-methylphenyl)pyridin-3-yl)-N-(1,2,2,6,6-pentamethylpiperidin-4-yl)pyrazolo[1,5-a]pyridine-3-carboxamide] it was 208 nM.
Same read-out and setting: in the case of `Cc1cc(-c2ncccc2-c2ccc3ncc(C(=O)NCCCO)n3c2)ccc1F` [compound 704, 6-(2-(4-Fluoro-3-methylphenyl)pyridin-3-yl)-N-(3-hydroxypropyl)imidazo[1,2-a]pyridine-3-carboxamide] it was 280 nM; in that of `Cc1cc(-c2ncccc2-c2ccc3ncc(C(=O)NCCO)n3c2)ccc1F` [compound 705, 6-(2-(4-Fluoro-3-methylphenyl)pyridin-3-yl)-N-(2-hydroxyethyl)imidazo[1,2-a]pyridine-3-carboxamide], 122 nM; in that of `Cc1cc(-c2ncccc2-c2ccn3ncc(C(=O)NCCCO)c3c2)ccc1F` [compound 706, 5-(2-(4-Fluoro-3-methylphenyl)pyridin-3-yl)-N-(3-hydroxypropyl)pyrazolo[1,5-a]pyridine-3-carboxamide], 228 nM.
Still for that read-out and setting: for `Cc1cc(-c2ncccc2-c2ccn3ncc(C(=O)NCCO)c3c2)ccc1F` [compound 707, 5-(2-(4-Fluoro-3-methylphenyl)pyridin-3-yl)-N-(2-hydroxyethyl)pyrazolo[1,5-a]pyridine-3-carboxamide] the value was 222 nM; for `CN1CCC(NC(=O)c2cnc3ccc(-c4cccnc4-c4cccc(Cl)c4)cn23)CC1` [compound 708, 6-(2-(3-Chlorophenyl)pyridin-3-yl)-N-(1-methylpiperidin-4-yl)imidazo[1,2-a]pyridine-3-carboxamide], 266 nM; for `CN1CCC(NC(=O)c2cnc3ccc(-c4cccnc4-c4ccc(F)c(Cl)c4)cn23)CC1` [compound 709, 6-(2-(3-Chloro-4-fluorophenyl)pyridin-3-yl)-N-(1-methylpiperidin-4-yl)imidazo[1,2-a]pyridine-3-carboxamide], 252 nM.
As for `CN1CCC(NC(=O)c2cnc3ccc(-c4cccnc4-c4cc(F)c(F)cc4F)cn23)CC1` [compound 710, N-(1-Methylpiperidin-4-yl)-6-(2-(2,4,5-Trifluorophenyl)pyridin-3-yl)imidazo[1,2-a]pyridine-3-carboxamide], the IC50 (Mus musculus, MPC-11, MPC11) was 1220 nM.
Take `Cc1cc(-c2ncccc2-c2ccc3ncc(C(=O)NC4CC5CCC(C4)N5C)n3c2)ccc1F` (stereo not drawn) [compound 712, exo-6-(2-(4-Fluoro-3-methylphenyl)pyridin-3-yl)-N-(8-methyl-8-azabicyclo[3.2.1]octan-3-yl)imidazo[1,2-a]pyridine-3-carboxamide]: where the note is “MPC11”, the IC50 was 4060 nM.
`Cc1cc(-c2ncccc2-c2ccc3ncc(C(=O)NC4CC5CCC(C4)N5C)n3c2)ccc1F` (stereo not drawn) [compound 713, endo-6-(2-(4-Fluoro-3-methylphenyl)pyridin-3-yl)-N-(8-methyl-8-azabicyclo[3.2.1]octan-3-yl)imidazo[1,2-a]pyridine-3-carboxamide]: the IC50 (MPC11) came out at 10200 nM.
Consider `Cc1cc(-c2ncccc2-c2ccn3ncc(C(=O)NC4CC5CCC(C4)N5C)c3c2)ccc1F` (stereo not drawn) [compound 715, exo-5-(2-(4-Fluoro-3-methylphenyl)pyridin-3-yl)-N-(8-methyl-8-azabicyclo[3.2.1]octan-3-yl)pyrazolo[1,5-a]pyridine-3-carboxamide], for which the IC50 (MPC11) stood at 2030 nM.
In the case of `Cc1cc(-c2ncccc2-c2ccn3ncc(C(=O)NC4CC5CCC(C4)N5C)c3c2)ccc1F` (stereo not drawn) [compound 716, endo-5-(2-(4-Fluoro-3-methylphenyl)pyridin-3-yl)-N-(8-methyl-8-azabicyclo[3.2.1]octan-3-yl)pyrazolo[1,5-a]pyridine-3-carboxamide], the IC50 (MPC11) was found to be 5030 nM.
`Fc1ccc(Cl)cc1-c1ncccc1-c1ccc2ncsc2c1` [compound 717, 6-(2-(5-Chloro-2-fluorophenyl)pyridin-3-yl)benzo[d]thiazole]: the IC50 (Mus musculus, MPC-11, MPC11) worked out at 217 nM.
Still for that read-out and setting: for `Fc1cc(F)c(-c2ncccc2-c2ccc3ncsc3c2)cc1Cl` [compound 718, 6-(2-(5-Chloro-2,4-difluorophenyl)pyridin-3-yl)benzo[d]thiazole] the value was 314 nM.
On to `N#Cc1cnc2ccc(-c3cccnc3-c3cc(Cl)ccc3F)cn12` [compound 719, 6-(2-(5-Chloro-2-fluorophenyl)pyridin-3-yl)imidazo[1,2-a]pyridine-3-carbonitrile], for which the IC50 (Mus musculus, MPC-11, MPC11) came out at 402 nM.
The same measure, in the same setting: in the case of `N#Cc1cnc2ccc(-c3cccnc3-c3cc(Cl)c(F)cc3F)cn12` [compound 720, 6-(2-(5-Chloro-2,4-difluorophenyl)pyridin-3-yl)imidazo[1,2-a]pyridine-3-carbonitrile] it was 822 nM.
Same read-out and setting: for `Fc1ccc(Cl)cc1-c1ncccc1-c1ccc2nccn2c1` [compound 721, 6-(2-(5-Chloro-2-fluorophenyl)pyridin-3-yl)imidazo[1,2-a]pyridine] the value was 440 nM; for `CN1CCC(NC(=O)c2cnc3ccc(-c4cccnc4-c4cc(Cl)ccc4F)cn23)CC1` [compound 722, 6-(2-(5-Chloro-2-fluorophenyl)pyridin-3-yl)-N-(1-methylpiperidin-4-yl)imidazo[1,2-a]pyridine-3-carboxamide], 63.9 nM.
The same measure, in the same setting: in the case of `CN1CCC(NC(=O)c2cnc3ccc(-c4cccnc4-c4cc(Cl)c(F)cc4F)cn23)CC1` [compound 723, 6-(2-(5-Chloro-2,4-difluorophenyl)pyridin-3-yl)-N-(1-methylpiperidin-4-yl)imidazo[1,2-a]pyridine-3-carboxamide] it was 102 nM; in that of `Cc1cccc(-c2ncccc2-c2ccc3ncc(C(=O)NCCCN4CCCC4=O)n3c2)c1` [compound 724, N-(3-(2-Oxopyrrolidin-1-yl)propyl)-6-(2-(m-tolyl)pyridin-3-yl)imidazo[1,2-a]pyridine-3-carboxamide], 537 nM; in that of `Cc1ccc(F)c(-c2ncccc2-c2ccc3ncc(C(=O)NCCCN4CCCC4=O)n3c2)c1` [compound 725, 6-(2-(2-Fluoro-5-methylphenyl)pyridin-3-yl)-N-(3-(2-oxopyrrolidin-1-yl)propyl)imidazo[1,2-a]pyridine-3-carboxamide], 464 nM.
